In BindingDB's records for doi:10.1016/j.bmc.2007.01.046 (University of Tokyo, 2007):

Biological target: T1, Bile acid receptor (Homo sapiens, UniProt Q96RI1)
T1 sequence (Q96RI1 whole entry): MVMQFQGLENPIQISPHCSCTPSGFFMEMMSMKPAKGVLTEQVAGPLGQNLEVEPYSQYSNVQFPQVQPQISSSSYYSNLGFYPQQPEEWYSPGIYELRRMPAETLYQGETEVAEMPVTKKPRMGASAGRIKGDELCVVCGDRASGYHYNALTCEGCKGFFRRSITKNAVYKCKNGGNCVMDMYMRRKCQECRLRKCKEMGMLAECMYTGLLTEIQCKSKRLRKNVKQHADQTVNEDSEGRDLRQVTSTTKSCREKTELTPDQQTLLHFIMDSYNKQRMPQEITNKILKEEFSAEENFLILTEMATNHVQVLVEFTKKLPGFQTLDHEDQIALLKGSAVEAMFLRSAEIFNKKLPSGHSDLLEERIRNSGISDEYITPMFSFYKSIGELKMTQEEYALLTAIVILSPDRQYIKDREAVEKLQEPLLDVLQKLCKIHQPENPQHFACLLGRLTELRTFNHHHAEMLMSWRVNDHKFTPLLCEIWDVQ
Assay: Cotransfection Assay
Settings: pH 7.2; 37 °C

| SMILES | EC50 [µM] |
| --- | --- |
| O=C(O)c1cccc(NC(=O)c2ccc(OCc3c(-c4c(Cl)cccc4Cl)noc3-c3ccc(-c4ccccc4)cc3)cc2Cl)c1 [3-[(2-chloro-4-{[3-(2,6-dichlorophenyl)-5-(4-phenylphenyl)-1,2-oxazol-4-yl]methoxy}benzene)amido]benzoic acid] | 3.7 |
| O=C(O)c1cccc(NC(=O)c2ccc(OCc3c(-c4c(Cl)cccc4Cl)noc3-c3ccc4ccccc4c3)cc2Cl)c1 [3-[(2-chloro-4-{[3-(2,6-dichlorophenyl)-5-(naphthalen-2-yl)-1,2-oxazol-4-yl]methoxy}benzene)amido]benzoic acid] | 4 |
| O=C(O)c1cccc(/C=C/c2ccc(OCc3c(-c4c(Cl)cccc4Cl)noc3-c3ccc(-c4ccccc4)cc3)cc2Cl)c1 [3-[(E)-2-(2-chloro-4-{[3-(2,6-dichlorophenyl)-5-(4-phenylphenyl)-1,2-oxazol-4-yl]methoxy}phenyl)ethenyl]benzoic acid] | 33.9 |
| O=C(O)c1cccc(/C=C/c2ccc(OCc3c(-c4c(Cl)cccc4Cl)noc3-c3ccc4ccccc4c3)cc2Cl)c1 [3-[(E)-2-(2-chloro-4-{[3-(2,6-dichlorophenyl)-5-(naphthalen-2-yl)-1,2-oxazol-4-yl]methoxy}phenyl)ethenyl]benzoic acid] | 22.2 |
| O=C(O)c1cccc(/C=C/c2ccc(OCc3c(-c4c(Cl)cccc4Cl)noc3-c3ccccc3)cc2Cl)c1 [3-[(E)-2-(2-chloro-4-{[3-(2,6-dichlorophenyl)-5-phenyl-1,2-oxazol-4-yl]methoxy}phenyl)ethenyl]benzoic acid] | 15.8 |
